According to patent US11873298B2, “Compounds and uses thereof” (JANSSEN PHARMACEUTICA NV, priority 2017, dated 2024):
Where “and” joins values, the source holds several entries; their conditions need not be identical. Equal entries are not always repeated.

Assays:
Format in all cases: cell-based
Ole1 = target: T1, Ole1 (Saccharomyces cerevisiae, UniProt P21147); experiment: Growth inhibition of yeast strain expressing Ole1 as sole desaturase; settings: for IC50 / OLE1 % Max Inhibition: yeast strain expressing Ole1 as sole desaturase
T1 construct: expressed in transfected cells; host or cells: S. cerevisiae ole1Δ strain (W303 pdr1Δ pdr3Δ background), plasmid pRS316 with TDH3 promoter and CYC1 terminator
T1 sequence (P21147 1-510): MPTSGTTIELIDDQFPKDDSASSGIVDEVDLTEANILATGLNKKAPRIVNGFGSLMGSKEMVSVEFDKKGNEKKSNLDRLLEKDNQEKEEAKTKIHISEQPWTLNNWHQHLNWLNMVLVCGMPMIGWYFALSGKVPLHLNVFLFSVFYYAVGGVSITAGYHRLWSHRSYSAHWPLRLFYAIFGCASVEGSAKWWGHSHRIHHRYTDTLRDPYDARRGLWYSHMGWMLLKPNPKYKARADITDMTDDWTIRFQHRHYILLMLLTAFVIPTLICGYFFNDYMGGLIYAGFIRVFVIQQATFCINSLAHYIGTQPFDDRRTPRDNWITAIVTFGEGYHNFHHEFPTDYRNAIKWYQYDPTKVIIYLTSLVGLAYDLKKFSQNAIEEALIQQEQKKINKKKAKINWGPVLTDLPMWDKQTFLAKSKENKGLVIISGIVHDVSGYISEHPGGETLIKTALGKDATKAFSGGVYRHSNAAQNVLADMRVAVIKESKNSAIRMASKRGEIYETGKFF
Procedure, shortened: (§1)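 OD600 growth read-out. ole1Δ yeast, pdr1Δ pdr3Δ, with Ole1/SCD1/SCD5 on a plasmid; SX-Ura media throughout; 2× cell density 0.02 in CSM-Galactose; DMSO compound dilutions; humidified 30° C.; Ole1 stopped at 24 h, SCD1/SCD5 at 40 h.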

SCD5 = target: T2, SCD5 (Homo sapiens, UniProt Q86SK9); experiment: Growth inhibition of humanized yeast strain expressing SCD5 as sole desaturase; settings: for IC50 / SCD5 % Max Inhibition: humanized yeast strain expressing SCD5
T2 construct: host or cells: S. cerevisiae ole1Δ strain (W303 pdr1Δ pdr3Δ background), plasmid pRS316 with TDH3 promoter and CYC1 terminator
T2 sequence (Q86SK9 1-330): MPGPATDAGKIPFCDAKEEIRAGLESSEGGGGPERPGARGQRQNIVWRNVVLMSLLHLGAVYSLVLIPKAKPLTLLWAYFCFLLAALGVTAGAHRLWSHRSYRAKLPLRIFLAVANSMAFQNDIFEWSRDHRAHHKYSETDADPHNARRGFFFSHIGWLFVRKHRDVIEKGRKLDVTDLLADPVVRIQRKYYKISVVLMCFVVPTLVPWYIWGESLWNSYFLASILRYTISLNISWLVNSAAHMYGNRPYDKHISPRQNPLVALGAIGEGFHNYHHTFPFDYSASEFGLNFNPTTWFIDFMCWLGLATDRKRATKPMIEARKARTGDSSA
Procedure, shortened: as §1

SCD1 = target: T3, SCD1 (Homo sapiens, UniProt O00767); experiment: Growth inhibition of humanized yeast strain expressing SCD1 as sole desaturase; settings: for IC50 / SCD1 % Max Inhibition: humanized yeast strain expressing SCD1
T3 construct: host or cells: S. cerevisiae ole1Δ strain (W303 pdr1Δ pdr3Δ background), plasmid pRS316 with TDH3 promoter and CYC1 terminator
T3 sequence (O00767 1-359): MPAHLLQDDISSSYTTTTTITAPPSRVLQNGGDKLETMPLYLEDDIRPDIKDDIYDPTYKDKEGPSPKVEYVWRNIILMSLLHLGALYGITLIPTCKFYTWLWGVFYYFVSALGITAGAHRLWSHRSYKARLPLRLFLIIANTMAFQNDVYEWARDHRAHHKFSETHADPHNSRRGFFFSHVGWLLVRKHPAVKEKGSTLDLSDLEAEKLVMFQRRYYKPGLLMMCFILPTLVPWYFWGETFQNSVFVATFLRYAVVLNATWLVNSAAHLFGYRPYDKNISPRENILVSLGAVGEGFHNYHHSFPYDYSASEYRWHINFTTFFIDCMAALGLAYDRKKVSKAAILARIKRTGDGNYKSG
Procedure, shortened: as §1

Row | SMILES | IC50 (Ole1) [µM] | OLE1 % Max Inhibition (Ole1) | IC50 (SCD5) [µM] | SCD5 % Max Inhibition (SCD5) | IC50 (SCD1) [µM] | SCD1 % Max Inhibition (SCD1) | growth of yeast expressing OLE1 in presence of inhibitor (Ole1; FIG. 6) | half-maximal inhibitory concentration (IC50) (SCD5; SCD5 humanized strain, FIG. 6) | half-maximal inhibitory concentration (IC50) (SCD1; SCD1 humanized strain, FIG. 6)
1 | Cn1ncc2ccc(NC(=O)C3CCN(C(=O)C4CC(=O)N(c5ccccc5)C4)CC3)cc21 (stereo not drawn) [Compound 213] | > 45 | 94.72% | > 45 | 85.33% | > 45 | 86.35% | – | – | –
2 | CCOc1ccc(-c2noc(C3CCN(C(=O)[C@@H]4CN(c5ccccc5)C(=O)O4)CC3)n2)cc1OC [Compound 172] | > 45 | 3.99% | 41.1 | 68.80% | > 45 | 89.39% | – | – | –
3 | Cn1ncc2ccc(-c3noc(C4CCN(C(=O)c5ccnc(-c6ccccc6)c5)CC4)n3)cc21 [Compound 208] | > 45 | 96.63% | > 45 | 5.68% | > 45 | 14.04% | – | – | –
4 | O=C(C1CC(=O)N(c2ccccc2)C1)N1CCC(c2nc(-c3ccc4nonc4c3)no2)CC1 (stereo not drawn) [Compound 164] | > 45 | 96.96% | > 45 | 73.90% | > 45 | 102.20% | – | – | –
5 | Cc1nn(C)c2cc(-c3noc(C4CCN(C(=O)[C@H]5CC(=O)N(c6ccccc6)C5)CC4(F)F)n3)ccc12 (stereo partly drawn) [Compound 241] | > 45 | 6.15% | > 45 | 16.97% | > 45 | 91.61% | – | – | –
6 | CCN(Cc1nc(-c2ccc(OC)c(OC)c2)no1)C(=O)Cc1ccccc1 [Compound 492] | > 45 | 106.45% | > 45 | 75.64% | – | 83.92% | – | – | –
7 | O=C([C@H]1CC(=O)N(c2ccccc2)C1)N1CCC(c2nc(-c3ccc(Br)s3)no2)CC1 [Compound 248] | > 45 | 73.12% | > 45 | 13.59% | – | 3.09% | – | – | –
8 | Cc1nn(C)c2cc(-c3noc(C4CCN(C(=O)c5ccc(Cl)cc5)CC4)n3)ccc12 [Compound 291] | > 45 | – | > 45 | 8.5% and 3.29% | – | 5.0% and 0.30% | – | – | –
9 | Cc1nn(C)c2cc(-c3nc(C4CCN(C(=O)OC(C)(C)C)CC4)no3)ccc12 [Compound 319] | > 45 | 74.25% and 63.83% and 86.3% and 84.75% | > 45 | – | ≥ 45 | 97.10% and 89.16% and 81.7% and 75.42% | – | – | –
10 | Cc1nn(C)c2cc(-c3nsc(C4CCN(C(=O)CNC(=O)c5ccccn5)CC4)n3)ccc12 [Compound 232] | > 45 | 4.20% | 41.1 | 51.17% | > 45 | 81.04% | – | – | –
11 | Cc1nn(C)c2cc(-c3noc(C4CCN(C(=O)CNC(=O)c5cc(Cl)ccc5C(F)(F)F)CC4)n3)ccc12 [Compound 328] | > 45 | 21.9% | > 45 | 80.5% | – | 86.6% | – | – | –
12 | Cc1nnc(-c2ccc(N3CCC(Oc4ccccc4C(F)(F)F)CC3)nn2)s1 [MF-438, reference compound] | – | – | – | – | – | – | resistant | low nanomolar | low nanomolar
13 | Cn1c(=O)n(C)c2cc(-c3noc(C4CCN(C(=O)CNC(=O)c5ccccn5)CC4)n3)ccc21 [Compound 230] | > 45 | 2.63% | > 45 | 44.00% | > 45 | 78.48% | – | – | –
14 | Cc1nn(C)c2cc(-c3noc(C4CCN(C(=O)c5ccccc5C(F)(F)F)CC4)n3)ccc12 [Compound 283] | > 45 | 24.43% | > 45 | 9.83% | 34.6 | 34.91% | – | – | –
